Patent publication US12441689B2 (EpiVario, Inc., priority 2019, dated 2025)
pIC50: −log10 of the molar value.

Biological target: human ACSS2 protein (Homo sapiens (Human), UniProt Q9NR19)
Test: ACSS2 Cell-Free Activity Assay (Cell-Free IC50)
Details: 10 nM human ACSS2 protein, 90 minutes at 37 C, pyrophosphatase-coupled, Biomol Green absorbance at 620 nm; read-out: ACSS2 Biochemical IC50
Description: ACSS2 Cell-Free Activity Assay (Cell-Free IC50)

human ACSS2 protein, sequence (Q9NR19 whole entry): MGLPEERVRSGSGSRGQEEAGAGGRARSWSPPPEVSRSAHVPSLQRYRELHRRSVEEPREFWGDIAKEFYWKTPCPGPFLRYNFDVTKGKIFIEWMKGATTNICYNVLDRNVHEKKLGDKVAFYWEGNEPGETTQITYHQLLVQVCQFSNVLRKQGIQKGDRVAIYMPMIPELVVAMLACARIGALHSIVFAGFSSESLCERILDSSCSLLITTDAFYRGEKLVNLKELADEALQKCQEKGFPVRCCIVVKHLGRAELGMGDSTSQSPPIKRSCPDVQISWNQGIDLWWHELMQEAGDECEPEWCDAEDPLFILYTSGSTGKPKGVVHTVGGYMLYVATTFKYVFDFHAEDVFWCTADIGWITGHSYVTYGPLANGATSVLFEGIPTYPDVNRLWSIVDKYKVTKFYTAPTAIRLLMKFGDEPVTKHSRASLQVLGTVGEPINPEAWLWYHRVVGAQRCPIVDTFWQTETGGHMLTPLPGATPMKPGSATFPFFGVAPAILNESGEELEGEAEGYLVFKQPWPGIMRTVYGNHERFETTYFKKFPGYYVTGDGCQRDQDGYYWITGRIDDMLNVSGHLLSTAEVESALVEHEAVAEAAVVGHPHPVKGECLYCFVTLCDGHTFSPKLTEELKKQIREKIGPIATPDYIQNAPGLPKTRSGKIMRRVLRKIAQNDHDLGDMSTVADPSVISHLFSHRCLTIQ

Row | pIC50 | Compound
1 | < 7.00 | Cc1nc(-c2ccc(OC(F)F)c(-c3ccccn3)c2)oc1C(=O)Nc1cccc(C(C)(F)F)c1 [Compound 213, N-(3-(1,1-difluoroethyl)phenyl)-2-(4-(difluoromethoxy)-3-(pyridin-2-yl)phenyl)-4-methyloxazole-5-carboxamide]
2 | < 7.00 | CCC(F)(F)c1cccc(NC(=O)c2oc(-c3ccc(OC(F)F)c(-c4ccccn4)c3)nc2C)c1 [Compound 214, 2-(4-(difluoromethoxy)-3-(pyridin-2-yl)phenyl)-N-(3-(1,1-difluoropropyl)phenyl)-4-methyloxazole-5-carboxamide]
3 | < 7.00 | CCC(F)(F)c1cccc(NC(=O)c2nc(-c3ccc(OC(F)F)cc3)[nH]c2C)c1 [Compound 215, 2-(4-(difluoromethoxy)phenyl)-N-(3-(1,1-difluoropropyl)phenyl)-5-methyl-1H-imidazole-4-carboxamide]
4 | < 7.00 | CCC(F)(F)c1cccc(NC(=O)c2cc(-c3ccc(OC(F)F)cc3)[nH]c2C)c1 [Compound 216, 5-[4-(difluoromethoxy)phenyl]-N-[3-(1,1-difluoropropyl)phenyl]-2-methyl-1H-pyrrole-3-carboxamide]
5 | < 7.00 | CCC(F)(F)c1cccc(NC(=O)c2cc(-c3ccc(OC(F)F)c(-c4ccccc4)c3)[nH]c2C)c1 [Compound 217, 5-[4-(difluoromethoxy)-3-phenyl-phenyl]-N-[3-(1,1-difluoropropyl)phenyl]-2-methyl-1H-pyrrole-3-carboxamide]
6 | < 7.00 | CCC(F)(F)c1cccc(NC(=O)c2nc(-c3ccc(OC(F)F)c(-c4ccccc4)c3)[nH]c2C)c1 [Compound 218, 2-(6-(difluoromethoxy)-[1,1′-biphenyl]-3-yl)-N-(3-(1,1-difluoropropyl)phenyl)-5-methyl-1 H-imidazole-4-carboxamide]
7 | < 7.00 | Cc1cc(-c2ccccc2)cc(-c2nc(C)cc(C(=O)Nc3cccc(C(C)(F)F)c3)n2)c1 [Compound 219, N-(3-(1,1-difluoroethyl)phenyl)-6-methyl-2-(5-methyl-[1,1’-biphenyl]-3-yl)pyrimidine-4-carboxamide]
8 | < 7.00 | Cc1oc(-c2ccc(OC(F)F)c(-c3cccnc3)c2)nc1C(=O)Nc1cccc(C(C)(F)F)c1 [Compound 220, N-(3-(1,1-difluoroethyl)phenyl)-2-(4-(difluoromethoxy)-3-(pyridin-3-yl)phenyl)-5-methyloxazole-4-carboxamide]
9 | < 7.00 | CCC(F)(F)c1cccc(NC(=O)c2nc(-c3ccc(OC(F)F)c(-c4cccnc4)c3)oc2C)c1 [Compound 221, 2-(4-(difluoromethoxy)-3-(pyridin-3-yl)phenyl)-N-(3-(1,1-difluoropropyl)phenyl)-5-methyloxazole-4-carboxamide]
10 | < 7.00 | CCC(F)(F)c1cccc(NC(=O)c2cc(-c3ccc(OC(F)F)cn3)[nH]c2C)c1 [Compound 222, 5-(5-(difluoromethoxy)pyridin-2-yl)-N-(3-(1,1-difluoropropyl)phenyl)-2-methyl-1H-pyrrole-3-carboxamide]
11 | < 7.00 | CCC(F)(F)c1cccc(NC(=O)c2cc(-c3ccc(OC(F)F)c(-c4ccccc4)n3)[nH]c2C)c1 [Compound 223, 5-(5-(difluoromethoxy)-6-phenylpyridin-2-yl)-N-(3-(1,1-difluoropropyl)phenyl)-2-methyl-1H-pyrrole-3-carboxamide]
12 | 7.00 to 9.00 | COc1c(Cc2ccc(Cl)cc2)cc(N2N=C(C)C(C(=O)Nc3cccc(C(C)(F)F)c3)C2=O)cc1-c1ccccc1 (stereo not shown) [Compound 224, 1-(5-(4-chlorobenzyl)-6-methoxy-[1,1’-biphenyl]-3-yl)-N-(3-(1,1-difluoroethyl)phenyl)-3-methyl-5-oxo-4,5-dihydro-1H-pyrazole-4-carboxamide]
13 | 7.00 to 9.00 | CCCc1cc(N2N=C(C)C(C(=O)Nc3cccc(C(F)(F)CC)c3)C2=O)cc(-c2ccccc2)c1OC (stereo not shown) [Compound 225, N-(3-(1,1-difluoropropyl)phenyl)-1-(6-methoxy-5-propyl-[1,1’-biphenyl]-3-yl)-3-methyl-5-oxo-4,5-dihydro-1H-pyrazole-4-carboxamide]
14 | < 7.00 | CCC(F)(F)c1cccc(NC(=O)c2cc(C)nc(-c3cc(C)cc(-c4ccccc4)c3)n2)c1 [Compound 226, N-(3-(1,1-difluoropropyl)phenyl)-6-methyl-2-(5-methyl-[1,1′-biphenyl]-3-yl)pyrimidine-4-carboxamide]
15 | < 7.00 | CCC(F)(F)c1cccc(NC(=O)c2nc(-c3ccc(OC(F)F)cn3)[nH]c2C)c1 [Compound 227, 2-(5-(difluoromethoxy)pyridin-2-yl)-N-(3-(1,1-difluoropropyl)phenyl)-5-methyl-1H-imidazole-4-carboxamide]
16 | 7.00 to 9.00 | COc1c(Cc2ccc(O)cc2)cc(N2N=C(C)C(C(=O)Nc3cccc(C(C)(F)F)c3)C2=O)cc1-c1ccccc1 (stereo not shown) [Compound 228, N-(3-(1,1-difluoroethyl)phenyl)-1-(5-(4-hydroxybenzyl)-6-methoxy-[1,1′-biphenyl]-3-yl)-3-methyl-5-oxo-4,5-dihydro-1H-pyrazole-4-carboxamide]
17 | 7.00 to 9.00 | CCC(F)(F)c1cccc(NC(=O)c2c(C)nn(-c3ccc(OC)cc3)c2F)c1 [Compound 229, N-(3-(1,1-difluoropropyl)phenyl)-5-fluoro-1-(4-methoxyphenyl)-3-methyl-1H-pyrazole-4-carboxamide]

Row | pIC50 | Compound
18 | < 7.00 | CCC(F)(F)c1cccc(NC(=O)c2c(C)nn(-c3ccc(OC)cc3)c2C(C)=O)c1 [Compound 230, 5-acetyl-N-(3-(1,1-difluoropropyl)phenyl)-1-(4-methoxyphenyl)-3-methyl-1H-pyrazole-4-carboxamide]
19 | < 7.00 | CCC(F)(F)c1cccc(NC(=O)c2c(C)nn(-c3ccc(OC)cc3)c2Cl)c1 [Compound 231, 5-chloro-N-(3-(1,1-difluoropropyl)phenyl)-1-(4-methoxyphenyl)-3-methyl-1H-pyrazole-4-carboxamide]
20 | < 7.00 | CCC(F)(F)c1cccc(NC(=O)c2n[nH]c(-c3ccc(OC)cc3)c2C(C)=O)c1 [Compound 232, 4-acetyl-N-(3-(1,1-difluoropropyl)phenyl)-5-(4-methoxyphenyl)-1 H-pyrazole-3-carboxamide]
21 | < 7.00 | CCC(F)(F)c1cccc(NC(=O)c2n[nH]c(-c3ccc(OC)cc3)c2Br)c1 [Compound 233]
22 | < 7.00 | CCC(F)(F)c1cccc(NC(=O)c2c(C)nn(-c3ccc(OC)cc3)c2C(=O)OC)c1 [Compound 234, methyl 4-((3-(1,1-difluoropropyl)phenyl)carbamoyl)-1-(4-methoxyphenyl)-3-methyl-1H-pyrazole-5-carboxylate]
23 | < 7.00 | CCC(F)(F)c1cccc(NC(=O)c2c(C)[nH]c(-c3ccc(OC)cc3)c2O)c1 [Compound 235, N-(3-(1,1-difluoropropyl)phenyl)-4-hydroxy-5-(4-methoxyphenyl)-2-methyl-1H-pyrrole-3-carboxamide]
24 | 7.00 to 9.00 | CCC(F)(F)c1cccc(NC(=O)C2C(=O)N(c3cc(Cc4ccc(Cl)cc4)c(OC)c(-c4ccccc4)c3)N=C2C)c1 (stereo not shown) [Compound 236, 1-(5-(4-chlorobenzyl)-6-methoxy-[1,1′-biphenyl]-3-yl)-N-(3-(1,1-difluoropropyl)phenyl)-3-methyl-5-oxo-4,5-dihydro-1H-pyrazole-4-carboxamide]
25 | 7.00 to 9.00 | COc1ccc(-c2ncc(C)c(C(=O)Nc3cccc(C(C)(F)F)c3)n2)cc1 [Compound 247, N-(3-(1,1-difluoroethyl)phenyl)-2-(4-methoxyphenyl)-5-methylpyrimidine-4-carboxamide]
26 | > 9.00 | CCC(F)(F)c1cccc(NC(=O)c2c(C)[nH]c(-c3ccc(OC)cc3)[n+]2[O-])c1 [Compound 248, 4-((3-(1,1-difluoropropyl)phenyl)carbamoyl)-2-(4-methoxyphenyl)-5-methyl-1H-imidazole 3-oxide]
27 | > 9.00 | CCC(F)(F)c1cccc(NC(=O)c2c(C)[nH]c(-c3ccc(OC)c(-c4ncccc4C)c3)[n+]2[O-])c1 [Compound 249, 4-((3-(1,1-difluoropropyl)phenyl)carbamoyl)-2-(4-methoxy-3-(3-methylpyridin-2-yl)phenyl)-5-methyl-1H-imidazole 3-oxide]
28 | < 7.00 | CCC(F)(F)c1cccc(NC(=O)c2c(C)oc(-c3ccc(OC)cc3)[n+]2[O-])c1 [Compound 250, 4-((3-(1,1-difluoropropyl)phenyl)carbamoyl)-2-(4-methoxyphenyl)-5-methyloxazole 3-oxide]
29 | < 7.00 | CCC(F)(F)c1cccc(NC(=O)c2c(C)oc(-c3ccc(OC)c(-c4ncccc4C)c3)[n+]2[O-])c1 [Compound 251, 4-((3-(1,1-difluoropropyl)phenyl)carbamoyl)-2-(4-methoxy-3-(3-methylpyridin-2-yl)phenyl)-5-methyloxazole 3-oxide]
30 | < 7.00 | CCC(F)(F)c1cccc(NC(=O)c2c(C)nn(-c3ccc(OC)cc3)[n+]2[O-])c1 [Compound 253, 5-((3-(1,1-difluoropropyl)phenyl)carbamoyl)-2-(4-methoxyphenyl)-4-methyl-2H-1,2,3-triazole 1-oxide]
31 | < 7.00 | CCC(F)(F)c1cccc(NC(=O)c2cc(C)nc(-c3ccc(OC(F)F)cn3)c2)c1 [Compound 257, 5'-(difluoromethoxy)-N-(3-(1,1-difluoropropyl)phenyl)-6-methyl-[2,2′-bipyridine]-4-carboxamide]
32 | < 7.00 | Cc1oc(-c2ccc(OC(F)F)c(-c3ccccn3)c2)nc1C(=O)Nc1cccc(C(C)(F)F)c1 [Compound 258, N-(3-(1,1-difluoroethyl)phenyl)-2-(4-(difluoromethoxy)-3-(pyridin-2-yl)phenyl)-5-methyloxazole-4-carboxamide]
33 | < 7.00 | CCC(F)(F)c1cccc(NC(=O)c2nc(-c3ccc(OC(F)F)c(-c4ccccn4)c3)oc2C)c1 [Compound 259, 2-(4-(difluoromethoxy)-3-(pyridin-2-yl)phenyl)-N-(3-(1,1-difluoropropyl)phenyl)-5-methyloxazole-4-carboxamide]
34 | < 7.00 | CCC(F)(F)c1cccc(NC(=O)c2nc(-c3ccc(OC(F)F)c(-c4ccccc4)n3)[nH]c2C)c1 [Compound 260, 2-(5-(difluoromethoxy)-6-phenylpyridin-2-yl)-N-(3-(1,1-difluoropropyl)phenyl)-5-methyl-1 H-imidazole-4-carboxamide]
